Data set [1] can be described thus: Human microsome stability assay. As to conditions: 1 μM test compound, 0.5 mg/mL liver microsomal protein, 37° C., pH 7.4. In kind it is in vitro ADME. In a few lines: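 1 μM compound with 0.5 mg/mL human liver microsomes in 100 mM potassium phosphate pH 7.4, 37° C, started with NADPH-regenerating system after 10 min preincubation. Sampled at 0, 3, 6, 9, 15, 30 min, quenched in acetonitrile; parent remaining by LC-MS/MS, with no-NADPH controls.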

The target in data set [2] is T1, TLR9 (Homo sapiens, UniProt Q9NR96).
T1 sequence (Q9NR96 26-1032): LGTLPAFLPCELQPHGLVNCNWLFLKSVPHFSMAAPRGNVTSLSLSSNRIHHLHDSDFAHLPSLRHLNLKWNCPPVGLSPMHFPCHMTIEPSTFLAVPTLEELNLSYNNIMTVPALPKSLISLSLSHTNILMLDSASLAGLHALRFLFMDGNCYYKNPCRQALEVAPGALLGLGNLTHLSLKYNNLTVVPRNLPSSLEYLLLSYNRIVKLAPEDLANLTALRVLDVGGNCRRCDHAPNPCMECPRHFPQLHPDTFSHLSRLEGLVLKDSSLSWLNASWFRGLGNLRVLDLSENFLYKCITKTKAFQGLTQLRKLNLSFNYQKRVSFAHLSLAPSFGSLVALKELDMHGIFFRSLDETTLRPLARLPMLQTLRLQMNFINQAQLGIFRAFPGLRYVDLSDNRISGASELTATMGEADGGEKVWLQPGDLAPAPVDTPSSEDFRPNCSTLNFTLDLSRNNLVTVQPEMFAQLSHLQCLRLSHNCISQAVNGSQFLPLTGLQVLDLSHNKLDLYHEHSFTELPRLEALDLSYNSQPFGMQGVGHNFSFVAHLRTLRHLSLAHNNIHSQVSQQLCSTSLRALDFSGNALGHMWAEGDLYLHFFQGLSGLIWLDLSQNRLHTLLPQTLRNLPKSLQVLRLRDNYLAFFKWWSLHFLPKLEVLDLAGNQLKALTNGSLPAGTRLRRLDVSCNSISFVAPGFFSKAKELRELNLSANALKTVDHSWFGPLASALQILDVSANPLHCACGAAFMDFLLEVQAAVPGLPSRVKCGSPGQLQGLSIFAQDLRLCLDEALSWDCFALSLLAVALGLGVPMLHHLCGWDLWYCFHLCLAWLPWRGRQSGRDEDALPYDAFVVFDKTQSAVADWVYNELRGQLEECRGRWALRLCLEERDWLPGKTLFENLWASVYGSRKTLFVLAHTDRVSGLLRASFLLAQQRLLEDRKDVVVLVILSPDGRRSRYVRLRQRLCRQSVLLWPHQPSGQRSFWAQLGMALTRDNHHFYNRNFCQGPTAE
The experiment in a line: HEK293-Blue-hTLR-9 cells assay (SEAP reporter, ODN2006 stimulation). It counts as cell-based. Further details: host or cells: HEK293 (HEK-Blue hTLR9). As to conditions: HEK293-Blue-hTLR9 cells, ODN2006, 20 hrs; read-out: HEK/hTLR9 IC50. In a few lines: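 Antagonist format: cells in DMEM/10% FBS exposed to serially diluted compound (1% DMSO) plus ODN2006 stimulation for 20 h at 37°C. Supernatant SEAP measured with QUANTI-Blue substrate, 2 h at 37°C, absorbance 620–655 nm.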

SMILES strings stand for the structures.

Regarding `CO[C@@H]1CN(c2cc3c(cn2)CN(c2cc(C)nc4c2cnn4C)C[C@@H]3C)C[C@H]1N` [Example 78, (3R,4R)-4-methoxy-1-[(5R)-7-(1,6-dimethylpyrazolo[3,4-b]pyridin-4-yl)-5-methyl-6,8-dihydro-5H-2,7-naphthyridin-3-yl]pyrrolidin-3-amine], the “Clearance of Human microsome” value in data set [1] stood at 6.9 mL/min/kg. In addition, in data set [2], the IC50 turned out to be 335 nM.

Take `Cc1cc(N2Cc3cnc(N4CC5(CNCCO5)C4)cc3[C@@H](C)C2)c2cnn(C)c2n1` [Example 79, 2-[(5R)-7-(1,6-dimethylpyrazolo[3,4-b]pyridin-4-yl)-5-methyl-6,8-dihydro-5H-2,7-naphthyridin-3-yl]-5-oxa-2,8-diazaspiro[3.5]nonane]: the “Clearance of Human microsome” value in data set [1] is 8.0 mL/min/kg. In addition, the IC50 in data set [2] stood at 131 nM.

In the case of `Cc1cc(N2Cc3cnc(N4CC[C@@H](N)[C@H](F)C4)cc3[C@@H](C)C2)c2cnn(C)c2n1` [Example 80, (3R,4R)-3-fluoro-1-[(5R)-7-(1,6-dimethylpyrazolo[3,4-b]pyridin-4-yl)-5-methyl-6,8-dihydro-5H-2,7-naphthyridin-3-yl]piperidin-4-amine], the “Clearance of Human microsome” value in data set [1] is listed as 6.2 mL/min/kg. Further, the IC50 in data set [2] came out at 73 nM.

(Values after patent publication US20240317735A1, “HYDROISOQUINOLINE OR HYDRONAPHTHYRIDINE COMPOUNDS FOR THE TREATMENT OF AUTOIMMUNE DISEASE” (Hoffmann-La Roche Inc., priority 2020, published 2024).)
